Results as given in publication PMC12164071, “Lysine targeting covalent inhibitors of malarial kinase PfCLK3” (RSC Medicinal Chemistry, 2025).
Where two headings read alike, the source gives them in different places.

How the values were obtained:
recombinant PfCLK3 = recombinant PfCLK3 (Plasmodium falciparum, UniProt Q8IIL5); assay: TR-FRET kinase assay at Km ATP; assay type: biochemical; conditions: 2 hour incubation, errors SD, N ≥ 3, * concentration response curve not complete
Description: All compounds were then evaluated against recombinant PfCLK3 using a TR-FRET kinase assay (Fig. 5). […]
Time Resolved Förster Resonance Energy Transfer (TR-FRET) Assay
Tr-FRET technology was used to determine kinase activity and Km ATP before profiling compounds. An 11-point half-log serial dilution of each test compound was prepared in 100% DMSO at 100X final test concentration. The dilution series were dispensed onto assay plates with liquid handling machinery using positive displacement. The final DMSO concentration in the assay was 1%. To obtain IC 50 values, full length recombinant PfCLK3 was prepared in 1X assay buffer (50 mM Hepes, 10 mM MgCl2, 1 mM EGTA, 0.01% Tween20, 2 mM TCEP) at a 2X concentration and incubated with compounds for 15 minutes at room temperature before addition of ULight-labelled peptide substrate (MBP) with Km ATP (at 2X concentration). The reaction was centrifuged and incubated for 2 hr at 37 °C. To stop the reaction, 1X Lance detection buffer was added with 1 nM Eu-labelled anti-MBP and 10 mM EDTA, and the reaction was incubated in the dark for 2 hr at room temperature to allow detection to take place. Plate output was read on a Pherastar FSX and data analysed in Graphpad Prism to a 4-parameter curve fit. […]

[1] = tested on: 3D7 Plasmodium falciparum parasites; assay: Ex vivo P. falciparum (3D7) inhibition assay; assay type: cell-based; conditions: 3D7, Pf3D7 parasites, 72 hours, errors SD
Description: Compounds 4, 5, 8 and 9 were then assessed against 3D7 Plasmodium falciparum parasites (Fig. 6). […]
P. falciparum (3D7) culture and synchronisation.
P. falciparum cultures were maintained in RPMI-1640 media (Invitrogen) supplemented with 0.2% sodium bicarbonate, 0.5% Albumax II, 2.0 mM L-glutamine (Sigma) and 10 mg/L gentamycin. For continuous culture, the parasites were maintained at 4% haematocrit in human erythrocytes from 0+ blood donors and between 0.5 - 3% parasitaemia in an incubator at 37 °C, 5% carbon dioxide (CO 2), 5% oxygen (O 2) and 90% nitrogen (N 2). To obtain highly synchronous ring stage parasites for assays, cultures were double synchronised using Percoll and Sorbitol synchronisation. First, highly segmented schizonts were enriched by centrifugation on a 70% Percoll (GE Healthcare) cushion gradient. The Schizont pellet was collected and washed twice before fresh erythrocytes were added to a final haematocrit of 4%, and incubated for about 1-2 hours shaking continuously to allow merozoites egress and re-invasion of new erythrocytes. Residual schizonts were then removed by a second Percoll purification followed by treating the ring pellet with sorbitol to generate highly synchronous 1-2 hours old ring-stage parasites.
Ex vivo P. Falciparum (3D7) inhibition assay.
To determine the IC 50 of the molecules in parasites (P. falciparum 3D7) ex vivo, the molecules were diluted 1 in 3 from a starting concentration of 100 μM for 12 dilution points in triplicate. 50 μL of freshly diluted drugs, at twice the required final concentrations were aliquoted into black 96-well plates. To the compound plates, 50 μL of parasites prepared at 8% haematocrit at a parasitaemia (0.3 - 0.5%) were added and mixed by pipetting up and down several times giving a final culture volume of 100 μL at the required compound concentration (top concentration of 100 μM) and 4% haematocrit. To the ‘no compound’ control, growth media was added and uninfected erythrocytes were included on the plate as blank. The outer wells were filled with media to reduce evaporation from the experimental wells and the plates incubated for 72 hours (±2 hours) to allow the parasites sufficient time to re-invade before they are collected and frozen. For cellular washout studies, compound media was exchanged for compound-free media after 6 hours, and the parasites incubated for a […]

[2] = N ≥ 3, read-out: pEC50 (3D7) (converted)

recombinant PfCLK3, sequence (Q8IIL5 entry or part of it): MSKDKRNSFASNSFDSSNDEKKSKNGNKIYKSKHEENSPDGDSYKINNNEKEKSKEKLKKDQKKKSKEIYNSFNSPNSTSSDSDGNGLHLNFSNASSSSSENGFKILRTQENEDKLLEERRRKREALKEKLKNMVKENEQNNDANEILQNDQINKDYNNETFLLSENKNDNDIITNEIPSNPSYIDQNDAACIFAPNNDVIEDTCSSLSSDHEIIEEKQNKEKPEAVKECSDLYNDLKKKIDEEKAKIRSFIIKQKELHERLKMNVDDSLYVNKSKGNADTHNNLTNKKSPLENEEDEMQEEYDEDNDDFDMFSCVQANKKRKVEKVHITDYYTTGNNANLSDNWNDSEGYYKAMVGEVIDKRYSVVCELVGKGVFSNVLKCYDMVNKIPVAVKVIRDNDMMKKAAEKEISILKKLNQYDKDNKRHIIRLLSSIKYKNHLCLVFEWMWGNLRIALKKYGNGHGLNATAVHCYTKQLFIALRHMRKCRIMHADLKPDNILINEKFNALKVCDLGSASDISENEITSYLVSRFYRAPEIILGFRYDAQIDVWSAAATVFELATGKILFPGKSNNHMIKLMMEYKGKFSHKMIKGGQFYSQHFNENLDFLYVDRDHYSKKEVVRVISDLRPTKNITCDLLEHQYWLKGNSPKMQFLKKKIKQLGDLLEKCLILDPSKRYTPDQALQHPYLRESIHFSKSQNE

CCN(CC)Cc1ccc(OC)c(-c2cc3c(-c4ccc(O)c(C=O)c4)ccnc3[nH]2)c1 [Compound 4]
IC50 (recombinant PfCLK3; IC50 (apparent), Km ATP (5 μM)): 16 ± 9 nM | IC50 (recombinant PfCLK3; pIC50, Km ATP (5 μM)): 16.2 nM | EC50 ([1]; N ≥ 3, read-out: EC50 (3D7)): 6350 ± 2310 nM | EC50 [1, 2]: 6310 nM

C#Cc1ccc(-c2c[nH]c3ncc(-c4cc(CN(CC)CC)ccc4OC)cc23)cc1C=O [Compound 9]
IC50 (recombinant PfCLK3; IC50 (apparent), Km ATP (5 μM)): 16 ± 4 nM | IC50 (recombinant PfCLK3; pIC50, Km ATP (5 μM)): 16.6 nM | EC50 ([1]; N ≥ 3, read-out: EC50 (3D7)): 4350 ± 500 nM | EC50 [1, 2]: 4370 nM
